The results in this text go back to patent US12624067B2, “Cyclic peptide, cell scaffold material, cell separating material, and medium” (FUJIFILM Corporation, priority 2019, dated 2026).

The nature of series [1]: Evaluation of molecule stability (alkali treatment, LC/MS residual rate). As to conditions: 500 μM peptide plus equivalent of 1 M sodium hydroxide, 15° C., 20 minutes, LC/MS peak area. It is filed as physicochemical. Here is the method: The molecule stability of the cyclic peptide was evaluated by analyzing the alkali-treated cyclic peptide aqueous solution by liquid chromatography mass spectroscopy (LC/MS).
The alkali treatment was carried out by the following method. A 500 μM cyclic peptide aqueous solution was prepared, an equivalent of 1 M sodium hydroxide aqueous solution was added to this aqueous solution, and the resultant mixture was incubated at 15° C. for 20 minutes to obtain an alkali-treated cyclic peptide aqueous solution. The cyclic peptide residual rate was calculated by setting the total area of all peaks of the cyclic peptide before alkali treatment in LC/MS to 100% and determining the proportion of the total area of all peaks in LC/MS of the alkali-treated cyclic peptide aqueous solution, and the molecule stability was evaluated according to the following evaluation standards. It is preferable that the evaluation result satisfies the evaluation standard A, B, or C.
The conditions of the LC/MS used for the evaluation of molecule stability were set as follows. • LC apparatus: Prominence series (pump, column oven, autosampler, detector) (manufactured by Shimadzu Corporation) • MS detector: LC/MS2010EV (manufactured by Shimadzu Corporation) • Column: Cadenza CD-C18, inner diameter 2.0 mm×length 250 mm, particle size: 3 μm (manufactured by Imtakt Corporation) • Eluent A: a solution (pH 3) containing 10 mM ammonium formate as a solute, where the solvent is 100% water. • Eluent B: a solution (pH 3) containing 10 mM ammonium formate as a solute, where the solvent is acetonitrile/water=90/10. • Flow rate: 0.2 mL/min • Injection volume: 4 μL • Gradient: 0% to 30%: Eluent B (0 to 30 minutes), 100%: Eluent B (30 to 40 minutes), 0%: Eluent B (40 to 60 minutes)(B indicates the eluent B) • Column temperature: 45° C. • Ionization method: electrospray ionization (ESI) positive, ESI negative

The next series deals with human integrin αvβ5 (Homo sapiens, UniProt P06756+P18084). As to the kind of experiment: Evaluation of integrin binding property (surface plasmon resonance, Biacore 3000, immobilized cyclic peptide). As to conditions: peptide immobilized on CM5 sensor chip; human integrin αvβ5 30-1,000 nM, 25° C., HEPES buffer with 5 mM magnesium chloride; read-out: Integrin binding property (dissociation constant). Here is the method:
A commercially available CM5 sensor chip (a carboxymethyl dextran introduction type, manufactured by GE Healthcare) was set in a surface plasmon resonance apparatus (product name: Biacore 3000, manufactured by GE Healthcare), the sensor was stabilized at a flow rate of 10 μL/min of a 4-(2-hydroxyethyl)-1-piperazineethanesulfonic acid (HEPES) buffer solution (20 mM HEPES-HCl, 150 mM NaCl, pH 7.4) for surface plasmon resonance (SPR), and 70 μL of a mixed aqueous solution of 0.2 M 1-(3-dimethylaminopropyl)-3-ethylcarbodiimide (EDC) and 0.04 M N-hydroxysuccinimide (NHS) was added thereto. Then, 300 μL of the sample solution of each of the above cyclic peptides diluted to 0.2 g/L with the HEPES buffer solution was supplied to the sensor chip, blocking treatment was subsequently carried out with an ethanolamine solution, and washing was carried out with a sodium hydroxide aqueous solution, whereby immobilization was carried out. However, only for the cyclic peptide 22, in which the number of lysine residues having an amino group as the immobilizing functional group was 1, the sample solution to be supplied to the sensor chip was set to 5,000 μL instead of 300 μL. Similarly; 70 μL of the mixed aqueous solution of 0.2 M EDC and 0.04 M NHS was added to another flow channel of the same sensor chip without immobilizing the sample, and then blocking treatment and washing treatment were carried out. Hereinafter, the obtained immobilization-treated sensor chip is referred to as an “immobilization-treated sensor chip A”.
After adding human integrin αvβ5 for 10 minutes at 25° C., which was diluted to 30 nM using a HEPES buffer solution to which magnesium chloride was added to 5 mM, in each flow channel of the immobilization-treated sensor chip A prepared in (1) above, the same HEPES buffer solution (containing 5 mM magnesium chloride) was allowed to flow as a running buffer for 30 minutes, and measurement was carried out with Biacore 3000.
Then, a regeneration treatment of removing human integrin αvβ5 was carried out by allowing a 0.5 M EDTA aqueous solution to flow through each flow channel for 10 minutes. Further, the above-described measurement process consisting of adding integrin for 10 minutes, allowing a running buffer to flow for 30 minutes, carrying out measurement with Biacore 3000, and carrying out regeneration treatment with 0.5 M EDTA aqueous solution was carried out in the same manner for 100 nM human integrin αvβ5, 300 nM human integrin αvβ5, and 1,000 nM human integrin αvβ5. Dissociation constant between the cyclic peptide and human integrin αvβ5 was calculated from the difference between the value measured by Biacore 3000 in the flow channel immobilized with the cyclic peptide and the value measured by Biacore 3000 in the flow channel unimmobilized with the cyclic peptide, in a case where each concentration of human integrin αvβ5 was allowed to flow; and the integrin binding property was evaluated according to the following evaluation standards. It is preferable that the evaluation result satisfies the evaluation standard A, B, or C.
In general terms: In SPR one partner is held on a chip, and binding of the other changes the refractive index at the surface.

Numbered stars: 1 amine (or outer) side, 2 acyl side, 3 side chain; on linkers, the order of the positions; unused ones are H or OH. Bridge positions count the residues as written; N and C are the ends. Square brackets hold non-standard residues; d marks the D form. Peptide text beside a SMILES is read from it. hCys = N[C@@H](CCS)C(=O)O; Orn = NCCC[C@H](N)C(=O)O; Dab = NCC[C@H](N)C(=O)O; Dap = NC[C@H](N)C(=O)O; X1 = O=C(C[*:1])[*:2]; X2 = O=C(C[*:2])[*:1]

Chain of human integrin αvβ5 (P06756 31-889 limits assumed): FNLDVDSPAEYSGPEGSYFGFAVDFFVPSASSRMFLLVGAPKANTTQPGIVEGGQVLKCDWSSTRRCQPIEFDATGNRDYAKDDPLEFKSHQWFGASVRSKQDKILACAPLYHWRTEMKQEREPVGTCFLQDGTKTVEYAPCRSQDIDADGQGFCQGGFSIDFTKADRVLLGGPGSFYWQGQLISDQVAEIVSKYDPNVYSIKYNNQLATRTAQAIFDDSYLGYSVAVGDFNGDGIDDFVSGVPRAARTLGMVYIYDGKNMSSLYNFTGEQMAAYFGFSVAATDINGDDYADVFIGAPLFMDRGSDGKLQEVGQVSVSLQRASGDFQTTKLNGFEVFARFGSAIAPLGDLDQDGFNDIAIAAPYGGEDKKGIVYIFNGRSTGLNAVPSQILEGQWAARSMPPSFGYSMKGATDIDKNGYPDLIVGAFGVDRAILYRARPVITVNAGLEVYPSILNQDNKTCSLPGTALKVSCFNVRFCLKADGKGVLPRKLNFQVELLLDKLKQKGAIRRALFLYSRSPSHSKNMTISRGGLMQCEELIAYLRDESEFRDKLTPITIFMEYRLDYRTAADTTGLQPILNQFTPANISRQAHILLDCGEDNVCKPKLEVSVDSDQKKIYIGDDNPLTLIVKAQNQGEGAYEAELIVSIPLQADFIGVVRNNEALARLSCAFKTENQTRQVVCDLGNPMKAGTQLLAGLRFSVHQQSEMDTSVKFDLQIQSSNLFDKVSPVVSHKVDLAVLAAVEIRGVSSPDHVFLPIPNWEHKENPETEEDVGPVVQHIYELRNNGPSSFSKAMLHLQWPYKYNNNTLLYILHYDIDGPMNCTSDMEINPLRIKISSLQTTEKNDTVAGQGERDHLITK
Chain of human integrin αvβ5 (P06756 891-1048 partner limits assumed): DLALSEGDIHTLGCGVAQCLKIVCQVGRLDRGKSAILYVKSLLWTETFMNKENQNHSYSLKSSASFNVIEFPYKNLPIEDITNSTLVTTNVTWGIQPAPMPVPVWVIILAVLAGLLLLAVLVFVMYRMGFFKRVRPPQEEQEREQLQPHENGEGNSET
Chain of human integrin αvβ5 (P18084 24-799): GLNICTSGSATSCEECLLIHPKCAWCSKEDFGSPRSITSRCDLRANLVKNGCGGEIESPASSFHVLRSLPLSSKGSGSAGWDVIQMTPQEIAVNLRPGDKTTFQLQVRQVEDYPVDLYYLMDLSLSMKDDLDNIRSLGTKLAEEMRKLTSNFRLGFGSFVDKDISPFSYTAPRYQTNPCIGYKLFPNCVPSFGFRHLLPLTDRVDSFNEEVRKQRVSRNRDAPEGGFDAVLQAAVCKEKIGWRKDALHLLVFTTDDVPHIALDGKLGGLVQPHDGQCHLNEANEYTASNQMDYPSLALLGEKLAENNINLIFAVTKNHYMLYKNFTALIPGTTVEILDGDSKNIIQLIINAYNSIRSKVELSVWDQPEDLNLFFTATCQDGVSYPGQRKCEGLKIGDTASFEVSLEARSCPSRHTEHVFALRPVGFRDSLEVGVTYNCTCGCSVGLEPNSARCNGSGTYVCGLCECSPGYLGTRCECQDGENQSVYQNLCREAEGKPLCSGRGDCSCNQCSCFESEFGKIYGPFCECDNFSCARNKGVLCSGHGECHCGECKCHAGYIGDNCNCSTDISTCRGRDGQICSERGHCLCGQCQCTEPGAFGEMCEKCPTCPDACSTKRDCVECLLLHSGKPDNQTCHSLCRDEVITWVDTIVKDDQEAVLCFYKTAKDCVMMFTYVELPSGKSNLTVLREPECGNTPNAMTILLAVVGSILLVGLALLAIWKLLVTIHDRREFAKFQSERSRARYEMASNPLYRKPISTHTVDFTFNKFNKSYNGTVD

Take `CC[C@H](C)[C@@H]1NC(=O)CSCC[C@@H](C(=O)N[C@@H](CCCCN)C(=O)N[C@@H](CCCCN)C(=O)N[C@@H](CCCCN)C(=O)O)NC(=O)[C@H](Cc2ccccc2)NC(=O)[C@@H]2CCSCC(=O)NC[C@H](NC1=O)C(=O)N[C@@H](CCCNC(=N)N)C(=O)NCC(=O)N[C@@H](CC(=O)O)C(=O)N2` [Cyclic peptide 1] ({CH2CO}-I[Dap]RGD[hCys]F[hCys]KKK-OH; linker 2-6 via X2; thioether N-8): the “Molecule stability (cyclic peptide residual rate)” value in series [1] was “A (The residual rate of the cyclic peptide is 70% or more.)”. Further, the Kd on human integrin αvβ5 is 50 to 100 nM.

For `CC[C@H](C)[C@@H]1NC(=O)CSCC[C@@H](C(=O)N[C@@H](CCCCN)C(=O)N[C@@H](CCCCN)C(=O)N[C@@H](CCCCN)C(=O)O)NC(=O)[C@H](Cc2ccccc2)NC(=O)[C@@H]2CCSCC(=O)NCC[C@H](NC1=O)C(=O)N[C@@H](CCCNC(=N)N)C(=O)NCC(=O)N[C@@H](CC(=O)O)C(=O)N2` [Cyclic peptide 2] ({CH2CO}-I[Dab]RGD[hCys]F[hCys]KKK-OH; linker 2-6 via X2; thioether N-8), the “Molecule stability (cyclic peptide residual rate)” value in series [1] is “A (The residual rate of the cyclic peptide is 70% or more.)”. The Kd on human integrin αvβ5 is 100 to 200 nM.

With `CC[C@H](C)[C@@H]1NC(=O)CSCC[C@@H](C(=O)N[C@@H](CCCCN)C(=O)N[C@@H](CCCCN)C(=O)N[C@@H](CCCCN)C(=O)O)NC(=O)[C@H](Cc2ccccc2)NC(=O)[C@@H]2CCSCC(=O)NCCC[C@H](NC1=O)C(=O)N[C@@H](CCCNC(=N)N)C(=O)NCC(=O)N[C@@H](CC(=O)O)C(=O)N2` [Cyclic peptide 3] ({CH2CO}-I[Orn]RGD[hCys]F[hCys]KKK-OH; linker 2-6 via X2; thioether N-8), the “Molecule stability (cyclic peptide residual rate)” value in series [1] is “A (The residual rate of the cyclic peptide is 70% or more.)”. Further, the Kd at human integrin αvβ5 is less than 50 nM.

Regarding `CC[C@H](C)[C@@H]1NC(=O)CSCC[C@@H](C(=O)N[C@@H](CCCCN)C(=O)N[C@@H](CCCCN)C(=O)N[C@@H](CCCCN)C(=O)O)NC(=O)[C@H](Cc2ccccc2)NC(=O)[C@@H]2CCSCC(=O)NCCCC[C@H](NC1=O)C(=O)N[C@@H](CCCNC(=N)N)C(=O)NCC(=O)N[C@@H](CC(=O)O)C(=O)N2` [Cyclic peptide 4] ({CH2CO}-IKRGD[hCys]F[hCys]KKK-OH; linker 2-6 via X2; thioether N-8), the “Molecule stability (cyclic peptide residual rate)” value in series [1] is recorded as “A (The residual rate of the cyclic peptide is 70% or more.)”. For the same compound, the Kd on human integrin αvβ5 was in the range of 50 to 100 nM.

For `CC[C@H](C)[C@@H]1NC(=O)CSCC[C@@H](C(=O)N[C@@H](CCCCN)C(=O)N[C@@H](CCCCN)C(=O)N[C@@H](CCCCN)C(=O)O)NC(=O)[C@H](Cc2ccccc2)NC(=O)[C@@H]2CNC(=O)CSCC[C@H](NC1=O)C(=O)N[C@@H](CCCNC(=N)N)C(=O)NCC(=O)N[C@@H](CC(=O)O)C(=O)N2` [Cyclic peptide 5] ({CH2CO}-I[hCys]RGD[Dap]F[hCys]KKK-OH; linker 2-6 via X1; thioether N-8), the “Molecule stability (cyclic peptide residual rate)” value in series [1] was “A (The residual rate of the cyclic peptide is 70% or more.)”. For the same compound, the Kd at human integrin αvβ5 was 50 to 100 nM.

For the compound `CC[C@H](C)[C@@H]1NC(=O)CSC[C@@H](C(=O)N[C@@H](CCCCN)C(=O)N[C@@H](CCCCN)C(=O)N[C@@H](CCCCN)C(=O)O)NC(=O)[C@H](Cc2ccccc2)NC(=O)[C@@H]2CNC(=O)CSC[C@H](NC1=O)C(=O)N[C@@H](CCCNC(=N)N)C(=O)NCC(=O)N[C@@H](CC(=O)O)C(=O)N2` [Cyclic peptide 6] ({CH2CO}-ICRGD[Dap]FCKKK-OH; linker 2-6 via X1; thioether N-8), the “Molecule stability (cyclic peptide residual rate)” value in series [1] is “B (The residual rate of the cyclic peptide is 50% or more and less than 70%.)”. Also, the Kd at human integrin αvβ5 lay within 100 to 200 nM.

Consider `CC[C@H](C)[C@@H]1NC(=O)CSCC[C@@H](C(=O)N[C@@H](CCCCN)C(=O)N[C@@H](CCCCN)C(=O)N[C@@H](CCCCN)C(=O)O)NC(=O)[C@H](Cc2ccccc2)NC(=O)[C@@H]2CCNC(=O)CSCC[C@H](NC1=O)C(=O)N[C@@H](CCCNC(=N)N)C(=O)NCC(=O)N[C@@H](CC(=O)O)C(=O)N2` [Cyclic peptide 7] ({CH2CO}-I[hCys]RGD[Dab]F[hCys]KKK-OH; linker 2-6 via X1; thioether N-8), for which the “Molecule stability (cyclic peptide residual rate)” value in series [1] is recorded as “A (The residual rate of the cyclic peptide is 70% or more.)”. Also, on human integrin αvβ5, the Kd was 50 to 100 nM.

Take `CC[C@H](C)[C@@H]1NC(=O)CSC[C@@H](C(=O)N[C@@H](CCCCN)C(=O)N[C@@H](CCCCN)C(=O)N[C@@H](CCCCN)C(=O)O)NC(=O)[C@H](Cc2ccccc2)NC(=O)[C@@H]2CCNC(=O)CSC[C@H](NC1=O)C(=O)N[C@@H](CCCNC(=N)N)C(=O)NCC(=O)N[C@@H](CC(=O)O)C(=O)N2` [Cyclic peptide 8] ({CH2CO}-ICRGD[Dab]FCKKK-OH; linker 2-6 via X1; thioether N-8): the “Molecule stability (cyclic peptide residual rate)” value in series [1] is “B (The residual rate of the cyclic peptide is 50% or more and less than 70%.)”. The Kd at human integrin αvβ5 is less than 50 nM.

Regarding `CC[C@H](C)[C@@H]1NC(=O)CSCC[C@@H](C(=O)N[C@@H](CCCCN)C(=O)N[C@@H](CCCCN)C(=O)N[C@@H](CCCCN)C(=O)O)NC(=O)[C@H](Cc2ccccc2)NC(=O)[C@@H]2CCCNC(=O)CSCC[C@H](NC1=O)C(=O)N[C@@H](CCCNC(=N)N)C(=O)NCC(=O)N[C@@H](CC(=O)O)C(=O)N2` [Cyclic peptide 9] ({CH2CO}-I[hCys]RGD[Orn]F[hCys]KKK-OH; linker 2-6 via X1; thioether N-8), the “Molecule stability (cyclic peptide residual rate)” value in series [1] is listed as “A (The residual rate of the cyclic peptide is 70% or more.)”. Further, the Kd on human integrin αvβ5 fell in the range of 50 to 100 nM.

For the compound `N=C(N)NCCC[C@@H]1NC(=O)[C@@H]2CNC(=O)CSCC[C@H](NC(=O)[C@H](CC(=O)O)NC(=O)CNC1=O)C(=O)N[C@@H](Cc1ccccc1)C(=O)N[C@H](C(=O)N[C@@H](CCCCN)C(=O)N[C@@H](CCCCN)C(=O)N[C@@H](CCCCN)C(=O)O)CCSCC(=O)N[C@@H](CCCCN)C(=O)N2` [Cyclic peptide 21] ({CH2CO}-K[Dap]RGD[hCys]F[hCys]KKK-OH; linker 2-6 via X2; thioether N-8; N-terminus and C-terminus assumed), the “Molecule stability (cyclic peptide residual rate)” value in series [1] is listed as “A (The residual rate of the cyclic peptide is 70% or more.)”.

`N=C(N)NCCC[C@@H]1NC(=O)[C@@H]2CSSC[C@H](NC(=O)[C@H](CC(=O)O)NC(=O)CNC1=O)C(=O)N[C@@H](Cc1ccccc1)C(=O)N[C@H](C(=O)N[C@@H](CCCCN)C(=O)N[C@@H](CCCCN)C(=O)N[C@@H](CCCCN)C(=O)O)CSCC(=O)N[C@@H](CCCCN)C(=O)N2` [Cyclic peptide 48, reference compound] ({CH2CO}-KCRGDCFCKKK-OH; disulfide 2-6; thioether N-8; N-terminus and C-terminus assumed): in series [1], the “Molecule stability (cyclic peptide residual rate)” value is given as “D (The residual rate of the cyclic peptide is less than 30%.)”.
